For the assay, the target named is T1, acetylcholine muscarinic M1 receptor (Homo sapiens, UniProt P11229).
T1 construct: expressed in transfected cells; host or cells: CHOnfat (CHO cells; also called CHOK1/hM1)
T1 sequence (P11229 1-460): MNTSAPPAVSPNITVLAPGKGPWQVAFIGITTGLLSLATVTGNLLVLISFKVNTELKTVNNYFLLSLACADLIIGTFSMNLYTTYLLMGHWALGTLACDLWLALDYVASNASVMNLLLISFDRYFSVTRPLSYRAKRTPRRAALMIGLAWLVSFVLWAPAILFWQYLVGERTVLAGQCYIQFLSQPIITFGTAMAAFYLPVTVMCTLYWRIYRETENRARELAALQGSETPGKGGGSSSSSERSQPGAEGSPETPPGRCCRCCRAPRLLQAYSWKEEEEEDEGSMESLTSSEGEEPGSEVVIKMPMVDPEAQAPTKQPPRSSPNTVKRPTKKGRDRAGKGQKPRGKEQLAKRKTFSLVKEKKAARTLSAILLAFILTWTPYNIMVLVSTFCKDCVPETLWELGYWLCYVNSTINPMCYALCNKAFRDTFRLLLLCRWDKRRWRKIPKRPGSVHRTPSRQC
Put plainly: muscarinic FLIPR assay: potentiation of acetylcholine (EC20)-stimulated intracellular Ca2+ in CHOnfat/hM1 cells. In kind it is cell-based. As to conditions: 4 min preincubation, then EC20 acetylcholine (3 nM final), read-out: IP Value (inflection point). The method, then: The assay studies the effect of one or several concentrations of test compounds on basal or acetylcholine-stimulated Ca^2+ levels using FLIPR.
Compounds are prepared and subjected to a preincubation period of 4 min. Thereafter, a single EC20 concentration of acetylcholine is added to each well (3 nM final). The intracellular Ca^2+ level of each sample is measured and compared to an acetylcholine control to determine any modulatory activity.
Cells: CHOnfat/hM1, hM2, hM3 or hM4 cells are plated 24 hr before the assay at a density of 18,000 cells/well (100 μL) in a 384 well plate. CHOnfat/hM1 and CHOnfat/hM3 Growth Medium: 90% DMEM (Hi Glucose); 10% HI FBS; 2 mM L-glutamine; 0.1 mM NEAA; Pen-Strep; and 1 mg/ml Geneticin, are added. For M2Gqi5CHOnfat and M4Gqi5CHOnfat cells, an additional 600 ug/ml hygromycin is added.
Equipment: 384 well plate, 120 μL addition plate; 96-well Whatman 2 ml Uniplate Incubator, 37° C., 5% CO2; Skatron EMBLA-384 Plate Washer; Multimek Pipetting System; Genesis Freedom 200 System; Mosquito System; Temo Nanoliter Pipetting System; and FLIPR^384 Fluorometric Imaging Plate Reader System are used.
Buffers. Assay Buffer: Hanks Balanced Salt Solution, with 20 mM Hepes, 2.5 mM Probenecid (Sigma P-8761) first dissolved in 1 N NaOH, 1% Bovine Serum Albumin (Sigma A-9647). Dye Loading Buffer: Assay Buffer plus 1% Fetal Bovine Serum and Fluo-4AM/Pluronic Acid Mixture. 2 mM Fluo-4AM ester stock in DMSO (Molecular Probes F-14202) Concentration of 2 μM in buffer for a final concentration of 1 μM in Assay. 20% Pluronic Acid Solution stock, with concentration of 0.04% in Buffer, 0.02% in Assay.
65 μL of 2 mM Fluo-4AM are mixed with 130 μL of 20% Pluronic Acid. The resulting solution and 650 μL FBS is added to the assay buffer for a total volume of 65 mL. Positive Controls: 4-Br-A23187: 10 mM in DMSO; final concentration 10 μM. Acetylcholine: 10 mM in water, working stock at both 20 μM and 30 μM in assay buffer, final concentration of 10 μM. This is used to check the maximum stimulation of the CHOK1/hM1 cells. 20 μM (2×) acetylcholine is added in the preincubation part of the assay, and the 30 μM (3×) stock is added in the second part. (EC20) Acetylcholine: 10 mM in water, working stock of 9 nM (3×), and final concentration in assay is 3 nM. This is used after the preincubation with test compounds. Addition of the EC20 Acetylcholine to each well with a test compound will ascertain any modulator activity. 24 wells contain 3 nM Acetylcholine alone as a control.
Determining Activity of Putative Compounds:
Screening Plate: Compounds are titrated in 96-well plates (columns 2-11), 100% DMSO, started at a concentration of 15 mM (150× stock concentration), and 3-fold serial dilutions using Genesis Freedom200 System. Four 96-well plates are combined into a 384-well plate using Mosquito Nanolitre Pipetting System by transferring 1 μl of serial diluted compounds to each well, and 1 mM acetylcholine (100× stock concentration) were added as a control. Using Temo, 49 μl assay buffer is added to each well of the 384-well plate right before assay.
In a 96-well Whatman 2 ml Uniplate, 9 nM Acetylcholine (3×) is pipetted into wells corresponding to the screening compounds, and into control wells. The 30 μM acetylcholine control (3×) is added into control wells, and the 3× agonist plate is transferred into a 384 well plate.
Cells are washed three times with 100 μL of buffer, leaving 30 μL of buffer in each well. Using Multimek, 30 μL of Dye Loading Buffer is added into each well and incubated at 37° C., 5% CO2 for up to one hr.
After 60 min, the cells are washed three times with 100 μL of buffer, leaving 30 μL of buffer in each well. The cell plate, screening plate, and agonist addition plates are placed on the platform in the FLIPR and the door closed. A signal test to check background fluorescence and basal fluorescence signal is performed. Laser intensity is adjusted if necessary. […]

Structures are written as SMILES.

`COc1ccc(Cc2cc3c(=O)n(-c4cccnc4)cnc3c3ccccc23)cc1` [Example 4, 6-(4-methoxybenzyl)-3-pyridin-3-ylbenzo[h]quinazolin-4(3H)-one]: the EC50 came out at 3500 nM.
Take `CS(=O)(=O)c1ccc(Cc2cc3c(=O)n([C@H]4CCCC[C@@H]4O)cnc3c3ccccc23)cn1` (racemic) [Example 8, rac-3-[trans-2-hydroxycyclohexyl]-6-{[6-methylsulfonyl)pyridine-3-yl]methyl}benzo[h]quinazolin-4(3H)-one]: the EC50 stood at 93 nM.
`O=c1c2cc(Cc3ccc(CO)nc3)c3ccccc3c2ncn1[C@H]1CCCC[C@@H]1O` (racemic) [Example 15, rac-3-[trans-2-hydroxycyclohexyl]-6-{[6-(hydroxymethyl)pyridine-3-yl]methyl}benzo[h]quinazolin-4(3H)-one]: the EC50 is 24 nM.
Regarding `Cn1cc(-c2ccc(Cc3cc4c(=O)n([C@H]5CCCC[C@@H]5O)cnc4c4ccccc34)cn2)cn1` (racemic) [Example 5, rac-3-[trans-2-hydroxycyclohexyl]-6-{[6-(1-methyl-1H-pyrazol-4-yl)pyridine-3-yl]methyl}benzo[h]quinazolin-4(3H)-one], the EC50 was found to be 8 nM.
In the case of `O=c1c2cc(Cc3ccccn3)c3ccccc3c2ncn1[C@H]1CCCC[C@@H]1O` [Example 18, 3-[(1S,2S)-2-hydroxycyclohexyl]-6-(pyridin-2-ylmethyl)benzo[h]quinazolin-4(3H)-one], the EC50 is 228 nM.
For `CC(=O)N[C@H]1CCCC[C@@H]1n1cnc2c(cc(Cc3ccc(Cl)nc3)c3ccccc32)c1=O` [Example 12, N-{(1S,2S)-2-[6-[(6-chloropyridin-3-yl)methyl]-4-oxobenzo[h]quinazolin-3(4H)-yl]cyclohexyl}acetamide], the EC50 is over 10000 nM.
Next, `Cc1ccc(Cc2cc3c(=O)n([C@H]4CCCC[C@@H]4O)cnc3c3ccccc23)cn1` [Example 2, 3-[(1S,2S)-2-hydroxycyclohexyl]-6-[(6-methylpyridin-3-yl)methyl]benzo[h]quinazolin-4(3H)-one]: 21 nM; `Cc1nc2c(cc(Cc3ccc(Cl)nc3)c3ccccc32)c(=O)n1[C@H]1CCCC[C@@H]1O` [Example 19, 6-[(6-chloropyridin-3-yl)methyl]-3-[(1S,2S)-2-hydroxycyclohexyl]-2-methylbenzo[h]quinazolin-4(3H)-one]: 1430 nM.
As for `CC(C)(O)c1ccc(Cc2cc3c(=O)n([C@H]4CCCC[C@@H]4O)cnc3c3ccccc23)cn1` [Example 14], the figure is 46 nM; as for `CC(=O)O[C@H]1CCCC[C@@H]1n1cnc2c(cc(Cc3ccc(Cl)nc3)c3ccccc32)c1=O` (racemic) [Example 11, trans-2-[6-[(6-chloropyridin-3-yl)methyl]-4-oxobenzo[h]quinazolin-3(4H)-yl]cyclohexyl rac-acetate], 3600 nM.
For `O=C1CCCCC1n1cnc2c(cc(Cc3ccc(Cl)nc3)c3ccccc32)c1=O` (stereo not shown) [Example 10, 6-[(6-chloropyridin-3-yl)methyl]-3-(2-oxycyclohexyl)benzo[h]quinazolin-4(3H)-one], the EC50 stood at 1300 nM.
Consider `Cc1ccc(Cc2cc3c(=O)n([C@H]4CCCC[C@@H]4O)cnc3c3ccccc23)c[n+]1[O-]` [Example 17, 3-[(1S,2S)-2-hydroxycyclohexyl]-6-[(6-methyl-1-oxidopyridin-3-yl)methyl]benzo[h]quinazolin-4(3H)-one], for which the EC50 came to 63 nM.
As for `N#Cc1ccc(Cc2cc3c(=O)n([C@H]4CCCC[C@@H]4O)cnc3c3ccccc23)cn1` (racemic) [Example 7, rac-5-({3-[trans-2-hydroxycyclohexyl]-4-oxo-3,4-dihydrobenzo[h]quinazolin-6-yl}methyl)pyridine-2-carbonitrile], the EC50 came to 74 nM.
With `CC(C)c1ccc(Cc2cc3c(=O)n([C@H]4CCCC[C@@H]4O)cnc3c3ccccc23)cn1` [Example 13], the EC50 was 21 nM.
`COc1ccc(Cc2cc3c(=O)n(-c4cc(C)[nH]n4)cnc3c3ccccc23)cc1` [Example 3]: the EC50 is 1800 nM.
Turning to `COc1ccc(Cc2cc3c(=O)n([C@H]4CCCC[C@@H]4O)cnc3c3ccccc23)cn1` (racemic) [Example 9, rac-3-[trans-2-hydroxycyclohexyl]-6-[(6-methoxypyridin-3-yl)methyl]benzo[h]quinazolin-4(3H)-one], the EC50 was 73 nM.
For `Cc1ccc(Cc2cc3c(=O)n([C@H]4CCCC[C@@H]4O)cnc3c3ccccc23)cn1` (racemic) [Example 1, rac-3-[trans-2-hydroxycyclohexyl]-6-[(6-methylpyridin-3-yl)methyl]benzo[h]quinazolin-4(3H)-one], the EC50 worked out at 51 nM.
As for `O=c1c2cc(Cc3ccc(-n4cccn4)nc3)c3ccccc3c2ncn1[C@H]1CCCC[C@@H]1O` (racemic) [Example 6, rac-3-[trans-2-hydroxycyclohexyl]-6-{[6-(1H-pyrazol-1-yl)pyridin-3-yl]methyl}benzo[h]quinazolin-4(3H)-one], the figure is 31 nM; as for `Cn1cc(Cc2cc3c(=O)n([C@H]4CCCC[C@@H]4O)cnc3c3ccccc23)ccc1=O` (racemic) [Example 16, rac-3-[trans-2-hydroxycyclohexyl]-6-[(1-methyl-6-oxo-1,6-dihydropyridin-3-yl)methyl]benzo[h]quinazolin-4(3H)-one], 84 nM.

Source of the values: patent publication US8557832B2, “Aryl methyl benzoquinazolinine M1 receptor positive allosteric modulators” (Merck Sharp & Dohme Corp., priority 2008, dated 2013).
